From patent US10173991B2, “Sulfone amide linked benzothiazole inhibitors of endothelial lipase” (BRISTOL-MYERS SQUIBB COMPANY, priority 2014, dated 2019)

The compounds below were run against Endothelial lipase (EL) (Homo sapiens (Human), UniProt Q9Y5X9) (assay: Endothelial lipase (EL) enzymatic assay with fluorescent substrate A10070 in DMPG vesicles).
Assay type: biochemical
How it was run: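 Substrate A10070 sits in sonicated DMPG vesicles at 0.11 mole fraction. Lipase and compound preincubated 30 min, 37° C, in HEPES pH 8.0 buffer with CaCl2.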

Sequence of Endothelial lipase (EL) (Q9Y5X9 21-500): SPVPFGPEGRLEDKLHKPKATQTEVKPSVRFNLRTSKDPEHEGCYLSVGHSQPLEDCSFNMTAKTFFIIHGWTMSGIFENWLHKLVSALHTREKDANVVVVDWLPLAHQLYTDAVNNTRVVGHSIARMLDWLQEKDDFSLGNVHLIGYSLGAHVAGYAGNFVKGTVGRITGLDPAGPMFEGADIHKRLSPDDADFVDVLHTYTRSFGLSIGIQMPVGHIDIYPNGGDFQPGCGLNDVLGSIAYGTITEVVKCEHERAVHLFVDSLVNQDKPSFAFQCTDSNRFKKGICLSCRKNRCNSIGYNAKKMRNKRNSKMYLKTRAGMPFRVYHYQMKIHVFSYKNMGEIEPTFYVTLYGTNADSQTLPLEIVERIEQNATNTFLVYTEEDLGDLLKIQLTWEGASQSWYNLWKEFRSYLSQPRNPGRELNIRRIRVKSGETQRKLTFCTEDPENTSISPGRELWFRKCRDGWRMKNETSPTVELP

Row | SMILES | IC50 [nM]
1 | Cc1cc(-c2cc3sc(C(C(=O)NCC(=O)NC4CC4)S(=O)(=O)C(C)C)nc3cc2F)cnn1 (stereo not shown) [Example 240, N-[(cyclopropylcarbamoyl)methyl]-2-[5-fluoro-6-(6-methylpyridazin-4-yl)-1,3-benzothiazol-2-yl]-2-(propane-2-sulfonyl) acetamide] | 192
2 | CC(C)S(=O)(=O)C(C(=O)NCC(=O)NC1CC1)c1nc2cc(F)c(-c3ccc(C4CC4)nc3)cc2s1 (stereo not shown) [Example 241, N-[(cyclopropyl-carbamoyl)methyl]-2-[6-(6-cyclopropyl-pyridin-3-yl)-5-fluoro-1,3-benzothiazol-2-yl]-2-(propane-2-sulfonyl) acetamide] | 17
3 | CC(C)S(=O)(=O)C(C(=O)NCC(=O)NC1CC1)c1nc2cc(F)c(-c3cnc(C4CC4)nc3)cc2s1 (stereo not shown) [Example 243, N-[(cyclopropyl-carbamoyl)methyl]-2-[6-(2-cyclopropyl-pyrimidin-5-yl)-5-fluoro-1,3-benzothiazol-2-yl]-2-(propane-2-sulfonyl) acetamide] | 33
4 | Cc1cc(-c2cc3sc(C(C(=O)NCC(=O)NC4CC4)S(=O)(=O)C(C)C)nc3cc2F)ccn1 (stereo not shown) [Example 245, N-[(cyclopropyl-carbamoyl)methyl]-2-[5-fluoro-6-(2-methylpyridin-4-yl)-1,3-benzothiazol-2-yl]-2-(propane-2-sulfonyl)acetamide] | 12
5 | Cc1ccc(-c2cc3sc(C(C(=O)NCC(=O)NC4CC4)S(=O)(=O)C(C)C)nc3cc2F)cn1 (stereo not shown) [Example 246, N-[(cyclopropyl-carbamoyl)methyl]-2-[5-fluoro-6-(6-methylpyridin-3-yl)-1,3-benzothiazol-2-yl]-2-(propane-2-sulfonyl)acetamide] | 12
6 | CC(C)S(=O)(=O)C(C(=O)NCC(=O)NC1CC1)c1nc2cc(F)c(-c3ccc(C(=O)Nc4nccs4)cc3)cc2s1 (stereo not shown) [Example 247, 4-[2-({[(cyclopropyl-carbamoyl)methyl]carbamoyl} (propane-2-sulfonyl)methyl)-5-fluoro-1,3-benzothiazol-6-yl]-N-(1,3-thiazol-2-yl) benzamide] | 11
7 | CC(C)S(=O)(=O)C(C(=O)NCC(=O)NC1CC1)c1nc2cc(F)c(-c3ccc(C#N)nc3)cc2s1 (stereo not shown) [Example 249, 2-[6-(6-cyanopyridin-3-yl)-5-fluoro-1,3-benzothiazol-2-yl]-N-[(cyclopropyl-carbamoyl)methyl]-2-(propane-2-sulfonyl)acetamide] | 29
8 | Cc1cc(-c2cc3sc(C(C(=O)NCC(=O)NC4CC4)S(C)(=O)=O)nc3cc2F)ccn1 (stereo not shown) [Example 250, N-[(cyclopropyl-carbamoyl)methyl]-2-[5-fluoro-6-(2-methylpyridin-4-yl)-1,3-benzothiazol-2-yl]-2-methanesulfonyl-acetamide] | 11
9 | Cc1ccc(-c2cc3sc(C(C(=O)NCC(=O)NC4CC4)S(=O)(=O)C(C)C)nc3cc2C)cn1 (stereo not shown) [Example 252, N-[(cyclopropyl-carbamoyl)methyl]-2-[5-methyl-6-(6-methylpyridin-3-yl)-1,3-benzothiazol-2-yl]-2-(propane-2-sulfonyl)acetamide] | 15
10 | Cc1cc(-c2cc3sc(C(C(=O)NCC(=O)NC4CC4)S(=O)(=O)C(C)C)nc3cc2C)cnn1 (stereo not shown) [Example 257, N-[(cyclopropyl-carbamoyl)methyl]-2-[5-methyl-6-(6-methylpyridazin-4-yl)-1,3-benzothiazol-2-yl]-2-(propane-2-sulfonyl) acetamide] | 11
11 | Cc1cc2nc(C(C(=O)NCC(=O)NC3CC3)S(=O)(=O)C(C)C)sc2cc1-c1ccc2c(c1)C(=O)NC2 (stereo not shown) [Example 258, N-[(cyclopropyl-carbamoyl)methyl]-2-[5-methyl-6-(3-oxo-2,3-dihydro-1H-isoindol-5-yl)-1,3-benzothiazol-2-yl]-2-(propane-2-sulfonyl) acetamide] | 19
12 | Cc1ccc(-c2cc3nc(C(C(=O)NCC(=O)NC4CC4)S(=O)(=O)C(C)C)sc3cc2F)cn1 (stereo not shown) [Example 262, N-[(cyclopropyl-carbamoyl)methyl]-2-[6-fluoro-5-(6-methylpyridin-3-yl)-1,3-benzothiazol-2-yl]-2-(propane-2-sulfonyl)acetamide] | 10
13 | CC(C)S(=O)(=O)C(C(=O)NCC(=O)NC1CC1)c1nc2cc(-c3ccc(F)nc3)c(F)cc2s1 (stereo not shown) [Example 263, N-[(cyclopropyl-carbamoyl)methyl]-2-[6-fluoro-5-(6-fluoropyridin-3-yl)-1,3-benzothiazol-2-yl]-2-(propane-2-sulfonyl)acetamide] | 13
14 | CC(C)S(=O)(=O)C(C(=O)NCC(=O)NC1CC1)c1nc2cc(-c3ccc4c(c3)CC(=O)N4)c(F)cc2s1 (stereo not shown) [Example 266, N-[(cyclopropyl-carbamoyl)methyl]-2-[6-fluoro-5-(2-oxo-2,3-dihydro-1H-indol-5-yl)-1,3-benzothiazol-2-yl]-2-(propane-2-sulfonyl)acetamide] | 38

The next compounds have a lower IC50 than those just listed; values first:

Row | IC50 [nM] | SMILES
15 | 9 | Cc1cc2nc(C(C(=O)NCC(=O)NC3CC3)S(=O)(=O)C(C)C)sc2cc1-c1ccc(C#N)nc1 (stereo not shown) [Example 254, 2-[6-(6-cyanopyridin-3-yl)-5-methyl-1,3-benzothiazol-2-yl]-N-[(cyclopropyl-carbamoyl)methyl]-2-(propane-2-sulfonyl)acetamide]
16 | 8 | CC(C)c1ccc(-c2cc3sc(C(C(=O)NCC(=O)NC4CC4)S(=O)(=O)C(C)C)nc3cc2F)cn1 (stereo not shown) [Example 251, N-[(cyclopropyl-carbamoyl)methyl]-2-{5-fluoro-6-[6-(propan-2-yl)pyridin-3-yl]-1,3-benzothiazol-2-yl}-2-(propane-2-sulfonyl) acetamide]
17 | 7 | CC(C)S(=O)(=O)C(C(=O)NCC(=O)NC1CC1)c1nc2cc(F)c(-c3ccc(C(=O)N4CCC4)cc3)cc2s1 (stereo not shown) [Example 244, 2-{6-[4-(azetidine-1-carbonyl)phenyl]-5-fluoro-1,3-benzothiazol-2-yl}-N-[(cyclopropyl-carbamoyl)methyl]-2-(propane-2-sulfonyl)acetamide]
18 | 7 | Cc1cc2nc(C(C(=O)NCC(=O)NC3CC3)S(=O)(=O)C(C)C)sc2cc1-c1ccc(C(C)C)nc1 (stereo not shown) [Example 253, N-[(cyclopropyl-carbamoyl)methyl]-2-{5-methyl-6-[6-(propan-2-yl)pyridin-3-yl]-1,3-benzothiazol-2-yl}-2-(propane-2-sulfonyl) acetamide]
19 | 7 | Cc1cc2nc(C(C(=O)NCC(=O)NC3CC3)S(=O)(=O)C(C)C)sc2cc1-c1ccc2cnn(C)c2c1 (stereo not shown) [Example 260, N-[(cyclopropyl-carbamoyl)methyl]-2-[5-methyl-6-(1-methyl-1H-indazol-6-yl)-1,3-benzothiazol-2-yl]-2-(propane-2-sulfonyl)acetamide]
20 | 7 | Cc1cc(-c2cc3nc(C(C(=O)NCC(=O)NC4CC4)S(=O)(=O)C(C)C)sc3cc2F)ccn1 (stereo not shown) [Example 264, N-[(cyclopropyl-carbamoyl)methyl]-2-[6-fluoro-5-(2-methylpyridin-4-yl)-1,3-benzothiazol-2-yl]-2-(propane-2-sulfonyl)acetamide]
21 | 5 | Cc1cc(-c2cc3sc(C(C(=O)NCC(=O)NC4CC4)S(=O)(=O)C(C)C)nc3cc2C)ccn1 (stereo not shown) [Example 255, N-[(cyclopropyl-carbamoyl)methyl]-2-[5-methyl-6-(2-methylpyridin-4-yl)-1,3-benzothiazol-2-yl]-2-(propane-2-sulfonyl) acetamide]
22 | 5 | CC(C)S(=O)(=O)C(C(=O)NCC(=O)NC1CC1)c1nc2cc(-c3ccc4c(=O)n(C)ccc4c3)c(F)cc2s1 (stereo not shown) [Example 267, N-[(cyclopropyl-carbamoyl)methyl]-2-[6-fluoro-5-(2-methyl-1-oxo-1,2-dihydro-isoquinolin-6-yl)-1,3-benzothiazol-2-yl]-2-(propane-2-sulfonyl) acetamide]
23 | 4 | CC(C)S(=O)(=O)C(C(=O)NCC(=O)NC1CC1)c1nc2cc(F)c(-c3ccc4c(=O)n(C)ccc4c3)cc2s1 (stereo not shown) [Example 242, N-[(cyclopropyl-carbamoyl)methyl]-2-[5-fluoro-6-(2-methyl-1-oxo-1,2-dihydro-isoquinolin-6-yl)-1,3-benzothiazol-2-yl]-2-(propane-2-sulfonyl) acetamide]
24 | 4 | Cc1cc2nc(C(C(=O)NCC(=O)NC3CC3)S(=O)(=O)C(C)C)sc2cc1-c1ccc(-c2ccccn2)cc1 (stereo not shown) [Example 261, N-[(cyclopropyl-carbamoyl)methyl]-2-{5-methyl-6-[4-(pyridin-2-yl)phenyl]-1,3-benzothiazol-2-yl}-2-(propane-2-sulfonyl) acetamide]
25 | 4 | CC(C)c1ccc(-c2cc3nc(C(C(=O)NCC(=O)NC4CC4)S(=O)(=O)C(C)C)sc3cc2F)cn1 (stereo not shown) [Example 265, N-[(cyclopropyl-carbamoyl)methyl]-2-{6-fluoro-5-[6-(propan-2-yl)pyridin-3-yl]-1,3-benzothiazol-2-yl}-2-(propane-2-sulfonyl)acetamide]
26 | 3 | Cc1cc2nc(C(C(=O)NCC(=O)NC3CC3)S(=O)(=O)C(C)C)sc2cc1-c1ccc2c(=O)n(C)ccc2c1 (stereo not shown) [Example 256, N-[(cyclopropyl-carbamoyl)methyl]-2-[5-methyl-6-(2-methyl-1-oxo-1,2-dihydro-isoquinolin-6-yl)-1,3-benzothiazol-2-yl]-2-(propane-2-sulfonyl) acetamide]
27 | 3 | Cc1cc2nc(C(C(=O)NCC(=O)NC3CC3)S(=O)(=O)C(C)C)sc2cc1-c1ccc(C(=O)N2CCC2)cc1 (stereo not shown) [Example 259, 2-{6-[4-(azetidine-1-carbonyl)phenyl]-5-methyl-1,3-benzothiazol-2-yl}-N-[(cyclopropyl-carbamoyl)methyl]-2-(propane-2-sulfonyl)acetamide]
28 | 1 | Cc1nc2cc(-c3cc4sc(C(C(=O)NCC(=O)NC5CC5)S(C)(=O)=O)nc4cc3F)ccc2s1 (stereo not shown) [Example 248, N-[(cyclopropyl-carbamoyl)methyl]-2-[5-fluoro-6-(2-methyl-1,3-benzothiazol-5-yl)-1,3-benzothiazol-2-yl]-2-methanesulfonyl-acetamide]
